Experimental data: ChEMBL document CHEMBL3507680, “University of Dundee, Gates Library screen for HepG2 cell viability”

Assay: Human HepG2 cell viability assay in 384 well format
Type: toxicity, cell-based
Parameters: dose 125 nL, time 70.5 hour; concentration not given beside the values
Conditions: HepG2 cells, read-out: Inhibition

Row | SMILES | cytotoxicity at 70.5 h
1 | CCC1=N[C@@]2(CC[C@@H]3CN(CC)C[C@@H]32)C(=O)N1C | 7.11%
2 | CC(=O)N1CCCC(c2ccc(Br)cn2)C1 (configuration not stated) | -6.22%
3 | CCC(NC(=O)C1CCN(C(=O)C2CC2)CC1)c1cn2cccnc2n1 (configuration not stated) | -8.35%
4 | CC(=O)N(Cc1noc(C)n1)C1CCN(CC2CCCC2)C1 (configuration not stated) | 23.3%
5 | CN(CCCc1cc(-c2cccc(F)c2)n[nH]1)C(=O)CCn1cncn1 | -13.6%
6 | COCc1cc(O)nc(C2CCCN(Cc3cccc(Cl)c3Cl)C2)n1 (configuration not stated) | -4.6%
7 | CCN1CCN(C(=O)COCc2nc(-c3ccncc3)no2)CC1 | -1.19%
8 | N#Cc1ccc(S(=O)(=O)NC(=O)COc2ccc3c(c2)CCC3)cc1 | -1.54%
9 | CC(=O)N1CCC(CCNC(C)c2cc(C)cc(C)c2)CC1 (configuration not stated) | 3.75%
10 | CCCn1ncc(C(=O)N2CCN(C3CCCC3)CC2)c1C | -3.82%
11 | CCCc1nc(CN2CCOC(Cn3cncn3)C2)no1 (configuration not stated) | 18.1%
12 | O=C(c1ccccc1)N1CC2(CCNC2)OCc2ccccc21 (configuration not stated) | -9.98%
13 | CCS(=O)(=O)N1CCN(C(C)c2ncc(-c3ccccc3)o2)CC1 (configuration not stated) | -19.2%
14 | CN1C[C@@H](O)[C@]2(CCN(C(=O)c3ccccc3)C2)S1(=O)=O | -7.54%
15 | COCC(=O)NC(C)Cc1cccc(Cl)c1 (configuration not stated) | 5.75%
16 | c1csc(CN2CCC3(COCCN(CC4CC4)C3)C2)n1 (configuration not stated) | -3.37%
17 | COC(=O)NCCC(=O)NC(C)Cc1ccccc1Br (configuration not stated) | -7.4%
18 | CC(O)CC(C)(C)CNC(=O)NCc1cccc(-n2cncn2)c1 (configuration not stated) | -7.73%
19 | COCCCN(CCOC)Cc1nc2c(cnn2C)c(=O)[nH]1 | -12.6%
20 | N#Cc1cc(NS(=O)(=O)c2ccc(C(=O)O)cc2F)ccc1F | -1.12%
21 | OC1(CNc2ccc(Br)cn2)CCSCC1 | 15.9%
22 | Cc1nsc(NCc2ccc(S(=O)(=O)N(C)C(C)C)cc2)n1 | 16.6%
23 | Cc1cc2c(=O)n3c(nc2s1)CCN(C(=O)c1nn(C)cc1Cl)CC3 | -4.02%

Row | SMILES | cytotoxicity at 70.5 h
24 | O=C(Nc1ccc(Cl)cn1)c1nn(C2CCS(=O)(=O)C2)c2c1CCCC2 (configuration not stated) | -23%
25 | C[C@H](NS(C)(=O)=O)C(=O)NCc1cc(-c2ccco2)n[nH]1 | -12.9%
26 | CSc1nc(N)cc(N2C[C@@H]3CC[C@H](C2)N(CC2CC2)C3=O)n1 | 3.27%
27 | O=C(NCc1ccco1)[C@H]1C[C@H]2OCC[C@H]2N(C(=O)c2ccco2)C1 | -8.55%
28 | CC(=O)NCCNC(=O)c1sc(-c2ccc(Cl)cc2)nc1C | -4.15%
29 | COC(=O)NCC(=O)N1CCCn2nc(CN3CC[C@H](F)C3)cc2C1 | -3.88%
30 | COCCN(Cc1noc(-c2ccc(OC)cc2)n1)C1CC1 | -0.841%
31 | Cc1ccc(C(NC(=O)CCNC(=O)c2ccoc2)C(F)(F)F)cc1 (configuration not stated) | -0.123%
32 | COc1ccccc1C(C)CNC(=O)c1c(C)nn(C)c1OC (configuration not stated) | -3.39%
33 | CC(=O)N1CCc2cc(C(=O)O)c(-c3ccsc3)nc2CC1 | -0.0308%
34 | O=C(O)c1csc(S(=O)(=O)Nc2c(F)cccc2-n2cccn2)c1 | 4.64%
35 | CCc1cc(O)n2nc(C3CCCN3C(=O)c3ccccn3)cc2n1 (configuration not stated) | 17%
36 | OC(CNCCc1nnc2ccccn12)c1ccc2c(c1)OCO2 (configuration not stated) | -5.97%
37 | Cc1cccc(CNC(C)c2ccc(OCC(=O)NC3CC3)cc2)c1 (configuration not stated) | -0.442%
38 | COc1ccc(OC)c(C(O)CNC(=O)Nc2cccnc2OC)c1 (configuration not stated) | -6.93%
39 | COCCNc1nc2c(c(NCc3cnc(C)c(C)c3)n1)CCNCC2 | -3.2%
40 | CN(C)Cc1cnc2n1CCN(C(=O)Cc1ccc(F)cc1)CC2 | -1.54%
41 | CCn1c(C)nnc1SCCn1cc(-c2nccs2)nn1 | -7.44%
42 | COC(=O)c1ccc(N2CCN(CCC#N)C(C)C2)cc1 (configuration not stated) | 11.4%
43 | O=C(c1ccncc1)N1CCC2(CC1)C(=O)Nc1ccccc12 | -10.1%
44 | CNC(=O)c1ccc(=O)n(Cc2csc(C(C)(C)C)n2)c1 | -18.4%
45 | CN1CCN(C(=O)c2occc2CN2C(=O)Cc3ccccc32)CC1 | 16%
46 | Cc1ccc(N2CCCC(NC(=O)C(C)(C)C#N)C2=O)cc1 (configuration not stated) | 1.69%

Row | SMILES | cytotoxicity at 70.5 h
47 | Cc1cc(NCC(=O)NCC(F)(F)F)nc(-c2ccncc2)n1 | -8.33%
48 | CN(Cc1cccc(OC(F)(F)F)c1)C(=O)c1cnsn1 | -3.78%
49 | CCc1nc(CN(C(C)=O)C2CCN(Cc3ccccc3F)C2)no1 (configuration not stated) | -7.96%
50 | Cc1ccc(-c2nc(CN3CCN(CCO)CC3)co2)cc1 | -9.54%
51 | Cc1nn(CC(=O)N(C)Cc2nncn2C(C)C)c(=O)c2ccccc12 | -9.91%
52 | CCN(Cc1ccccc1)S(=O)(=O)C1CCS(=O)(=O)CC1 | -10.9%
53 | CN(C)CCNCCC(Cc1ccccc1)C1CCOC(C)(C)C1 (configuration not stated) | -8.7%
54 | COCC(=O)N1CCC([C@@H]2C[C@H](C(F)(F)F)n3nc(C)cc3N2)CC1 | -3.42%
55 | CC(=O)c1ccc(OCC(=O)NC(C)CCc2ccco2)cc1 (configuration not stated) | -18.1%
56 | O=C(CN1CCN(c2ccnc3c(F)ccc(F)c23)CC1)NC1CC1 | 0.111%
57 | CC(C)c1noc(CCNC(=O)N2CCSC(C(C)C)C2)n1 (configuration not stated) | -3.03%
58 | CN(Cc1cccc(C(=O)Nc2ccnn2C)c1)CC1(C)COC1 | 0.785%
59 | CC(Nc1ccc(CCN2CCOCC2)cc1)C(=O)N(C)CCC#N (configuration not stated) | 9.3%
60 | Fc1ccc(OCCCN2CCOC(Cn3cncn3)C2)cc1 (configuration not stated) | -5.61%
61 | Cc1cc(NC(=O)NCc2cccnc2OC(C)C)no1 | -0.0866%
62 | CN(C)c1nccc(C2CCN(c3ncccn3)CC2)n1 | -0.97%
63 | CCS(=O)(=O)N1Cc2c(Cn3ccnc3)nn(C)c2C1 | -2.09%
64 | Cc1cnn(CC2CN(Cc3noc(C4CC4)n3)CCO2)c1 (configuration not stated) | -13.6%
65 | Cc1noc([C@]23COC[C@H]2CN(S(=O)(=O)N(C)C)C3)n1 | -1.88%
66 | CCc1nc(CN2CCCN(C(=O)c3ccnc(C)n3)CC2)cs1 | 3.9%
67 | CS(=O)(=O)NCC1CCCN(C(=O)CCCc2ccccc2)C1 (configuration not stated) | -8.93%
68 | O=C(N[C@@H]1CN(Cc2ccccc2)C[C@@H]2CCCO[C@@H]21)C1CC1 | -1.76%
69 | CC(C(=O)Nc1ncccn1)N1CCC(n2ccnc2)CC1 (configuration not stated) | -4.52%

Row | SMILES | cytotoxicity at 70.5 h
70 | CN(C)C(=O)N1CC2(CCN(CC3CC3)CC2)c2cc(F)ccc21 | 19.9%
71 | O=C(C1CCC1)N1CCC(C2CCN(Cc3ccc(Cl)cc3)C2)CC1 (configuration not stated) | -3.08%
72 | CC(C)(O)c1cn(C2CCN(C(=O)CCC(F)(F)F)CC2)nn1 | -2.56%
73 | CNc1cc(C2CCCN2C(=O)c2ccc3oc(=O)n(C)c3c2)ccn1 (configuration not stated) | -12.4%
74 | CS(=O)(=O)N1CCN(c2cc(-n3cccc3)ncn2)CC1 | -4.46%
75 | O=C(Nc1ccc(CCN2CCOCC2)cc1)C1CC1 | -4.46%
76 | CCN(C)C(=O)c1ccc2c(c1)C(c1nc[nH]n1)CN2S(C)(=O)=O (configuration not stated) | -8.39%
77 | CC(C)Nc1nc2c(c(NC3CC3)n1)CN(C(=O)c1ccsc1)CC2 | -17.2%
78 | NCc1cnn(-c2ccccc2C(=O)NCCc2ccccn2)c1 | -6.02%
79 | O=C(c1cnccn1)N1CCCC(C2=Nc3ccccc3S(=O)(=O)N2)C1 (configuration not stated) | -6.36%
80 | O=c1c(S(=O)(=O)N2CCCCC2)cccn1Cc1ccccc1Cl | -1.51%
81 | CC(=O)N1CCO[C@@H]2CN(S(=O)(=O)c3cccnc3)C[C@@H]2C1 | 0.618%
82 | CN(C)CCOC1CC2(CCN(c3cnccn3)CC2)c2ccccc21 (configuration not stated) | 31.5%
83 | CC1CN(C)CCN1C(=O)c1ccn(-c2ccc(F)cc2)n1 (configuration not stated) | -12.3%
84 | Cc1cccc(S(=O)(=O)N2C[C@@H]3C[C@@H](c4nc(C)no4)O[C@@H]3C2)c1 | -3.34%
85 | CC(C)c1cc(=O)[nH]c(-c2ccccc2CN2CCC(C)(C)C2)n1 | 5.1%
86 | N#Cc1ccc(SCCOCCO)c(F)c1 | -8.55%
87 | COc1cc2c(nn1)CCN(Cc1noc(CC(C)C)n1)C2 | -4.19%
88 | COc1ccc(Cl)cc1C(=O)N1CCOC2(CNCCOC2)C1 (configuration not stated) | -0.31%
89 | COCCN1C[C@H]2CN(C(=O)NC(C)C)CCN2C1=O | -3.98%
90 | NC(=O)c1cnc(NC2CCN(C(=O)C3CC3)CC2)c(Cl)c1 | -0.537%
91 | c1ccc(OCCN2CCC(n3cncn3)CC2)cc1 | 25.3%
92 | Cn1nnnc1SCCC(=O)NCC(C)(C)c1ccccc1F | 19.1%

Row | SMILES | cytotoxicity at 70.5 h
93 | COCCNc1cc(-c2cccc(C(=O)O)c2C)c2cc[nH]c2n1 | -11.2%
94 | COc1ccc(C(=O)Nc2c(C)nc3cccc(C)n3c2=O)cc1 | -17.1%
95 | Cc1nc(CNC(C)c2ccc(OCC(=O)NC3CC3)cc2)cs1 (configuration not stated) | 3.83%
96 | Cc1n[nH]c(C2CN(Cc3nnc(C4CC4)n3C)CCO2)n1 (configuration not stated) | -6.69%
97 | COc1cc(CNc2cc(-c3nncn3C)ccn2)cc(OC)c1OC | -3.3%
98 | Oc1ncccc1-c1nc(-c2cccc(CN3CCOCC3)c2)no1 | -15.1%
99 | COc1ccc(-n2nnnc2C2(NCc3ccco3)CCCCC2)cc1 | -9.96%
100 | COCCc1noc(CN2CCOC(Cn3nc(C)cc3C)C2)n1 (configuration not stated) | 2.63%
101 | COc1ccccc1N1CC(NC(=O)Cn2cc(C)nn2)CC1=O (configuration not stated) | -7.03%
102 | Cc1cc(C)c(C(=O)N2CCCC(C(=O)CCc3ccccc3)C2)cn1 (configuration not stated) | -3.58%
103 | CN1[C@H](CO)C[C@H](CNCc2ccc(Cl)c(F)c2)[C@@H]1c1ccccc1F | -3.08%
104 | CN(C)C(=O)c1cnn2c1OCCC2 | -2.65%
105 | Cc1ccc(CNC(=O)Nc2nccs2)cn1 | -4.14%
106 | O=C(C1CC1)N1CCCN(c2ncnc3c2CCNCC3)CC1 | -6.41%
107 | COCCCNC(=O)Cn1c(-c2cccc(Cl)c2)nc(C)cc1=O | 2.43%
108 | COc1ccc(Cl)cc1C(C(=O)O)N(C)Cc1ccon1 (configuration not stated) | 11.7%
109 | Cc1cccc(-c2noc(CN3CCn4c(nnc4C4CC4)C3)n2)c1 | -5%
110 | FC(F)(F)C1CN(Cc2cccc(-c3ccccn3)c2)CCO1 (configuration not stated) | -6.31%
111 | c1ccc2c(c1)OCCC2NCc1ccc(N2CCOCC2)cc1 (configuration not stated) | -2.79%
112 | CCCC(=O)N1CC[C@@H]2[C@H](CC1)N(Cc1cccc(C)n1)CCS2(=O)=O | -2.09%
